Columns and labels:
[1] = Liquid formulations of sirolimus and CCI-779: concentration by liquid chromatography/HPLC, visual observation; format: physicochemical
[2] = tested on: human coronary artery smooth muscle cells; assay: Anti-proliferative activity in cultured human coronary artery smooth muscle cells stimulated with two percent fetal bovine serum; format: cell-based; conditions: for effect of the added agent on the anti-proliferative activity of rapamycin: agent added to rapamycin treated human coronary artery smooth muscle cells; for effect of the added agent on the anti-proliferative activity of rapamycin / inhibition of human coronary artery smooth muscle cell proliferation (in words): two percent fetal bovine serum; for inhibition of human coronary artery smooth muscle cell proliferation (in words): agent alone
Excerpt: The multiple curves represent various concentrations of mycophenolic acid ranging from zero to one thousand nanomolar concentrations.
FIG. 58 illustrates, in graphical format, the anti-proliferative activity of cladribine in non-synchronized cultured human coronary artery smooth muscle cells stimulated with two percent fetal bovine serum.
The multiple curves represent various concentrations of cladribine ranging from zero to nine hundred nanomolar concentrations.
(§1) The multiple curves represent various concentrations of topotecan ranging from zero to three hundred nanomolar concentrations.
(§2) The multiple curves represent various concentrations of etoposide ranging from zero to eight hundred nanomolar concentrations.
The multiple curves represent various concentrations of Panzem® ranging from zero to 100 micromolar concentrations.
Curve 8702 illustrates the percent inhibition for various concentrations. In FIG. 88, the six curves 8802, 8804, 8806, 8808, 8810 and 8812 represent various concentrations of PX867 with various concentrations of sirolimus. […] More specifically, curve 8812 illustrates the percent inhibition for a 240 nM PX-867 concentration. […] This may be compared to curve 8804 which represents a 15 nM PX-867 concentration.

[3] = tested on: human coronary artery smooth muscle cell; assay: MTS cytotoxicity assay of Panzem; format: cell-based; conditions: concentrations up to 30,000.00 nanomolar
Excerpt: Typically, a control is utilized to determine baseline toxicity.

[4] = In vitro release kinetics from coated stents; format: physicochemical; conditions: single-layer sirolimus/cilostazol coating of FIG. 83
[5] = In vivo release kinetics from coated stents, porcine pharmacokinetics studies; conditions: combination coatings with rapamycin
Excerpt: The topcoat is two hundred micro grams.
FIG. 61 is a graphical representation of the in vivo release kinetics of cladribine from a polymeric coating on Bx Velocity® stents, available from Cordis Corporation, implanted in a Yorkshire pig. The basecoat comprises an 85/15 ratio of PVDF and HFP and cladribine for a total combined weight of one thousand eight hundred micrograms (cladribine comprising thirty percent of the total weight). The topcoat comprises an 85/15 ratio of PVDF/HFP and no cladribine. The total weight of the topcoat is three hundred micrograms.
(§3) The basecoat is applied to Bx Velocity® stents and implanted into Yorkshire pigs.
as §3
Another critical parameter for the performance of the thrombus resistance of a device coated with cilostazol is the duration of the drug release from the coating. This is of particular significance in the two weeks after device implantation. […] The purpose of the porcine PK study is to assess the local pharmacokinetics of a drug eluting stent at a given implantation time. Normally three stents are implanted in three different coronary arteries in a pig for a given time point and then retrieved for total drug recovery analysis. The stents are retrieved at predetermined time points; namely, 1, 3 and 8 days. The stents are extracted and the total amount of drug remaining on the stents is determined by analysis utilizing HPLC (high performance liquid chromatography) for total drug amount. The difference between the original amount of drug on the stent and the amount of drug retrieved at a given time represents the amount of drug released in that period. The continuous release of drug into surrounding arterial tissue is what prevents the neointimal growth and restenosis in the coronary artery. A normal plot represents the percentage of total drug released (%, y-axis) vs. time of implantation (day, x-axis). […] Curve 8102 represents cilostazol and curve 8104 represents sirolimus. […] In this exemplary configuration, the stent 8300 is coated with two layers. […]

[6] = Cell viability assay (cytotoxicity of topotecan, etoposide); format: cell-based
Excerpt: as §1, §2

[7] = Injectable liquid formulations of paclitaxel: composition and observation; format: physicochemical
Excerpt: This solution remained clear.

tumor cell lines = tumor cell lines (Woo et al.); cited from earlier work
[8] = tested on: human coronary artery smooth muscle cell; assay: Inhibition of coronary artery smooth muscle cell proliferation by trichostatin A, in vitro cell culture study; format: cell-based; conditions: read-out: anti-proliferative IC50
Excerpt: FIG. 51 is a graph of the inhibition of coronary artery smooth muscle cells by trichostatin A in a cell culture study.

CO[C@H]1C[C@@H]2CC[C@@H](C)[C@@](O)(O2)C(=O)C(=O)N2CCCC[C@H]2C(=O)O[C@H]([C@H](C)C[C@@H]2CC[C@@H](OC(=O)C(C)(CO)CO)[C@H](OC)C2)CC(=O)[C@H](C)/C=C(\C)[C@@H](O)[C@@H](OC)C(=O)[C@H](C)C[C@H](C)/C=C/C=C/C=C/1C [CCI-779]
concentration of CCI-779 in the final solution (HPLC) ([1]; ethanol, Vitamin E TPGS, water): 15000 µg/mL

COC[C@H]1OC(=O)/C(=C\N2CCCC2)C2=C(O)C(=O)C3=C([C@H](OC(C)=O)C[C@]4(C)C(=O)CC[C@@H]34)[C@]21C [PX-867]
percent inhibition of coronary artery smooth muscle cell proliferation ([2]; PX867 alone at a concentration of about 10^−6): close to one hundred percent inhibition | effect of the added agent on the anti-proliferative activity of rapamycin [2]: strong synergistic effect

COc1cc2c(cc1O)CC[C@@H]1[C@@H]2CC[C@]2(C)[C@@H](O)CC[C@@H]12 [Panzem®, 2-methoxyestradiol]
cell survival in MTS assay [3]: do not reduce human coronary artery smooth muscle cell survival | effect of the added agent on the anti-proliferative activity of rapamycin [2]: increases the percent of inhibition of rapamycin alone | inhibition of human coronary artery smooth muscle cell proliferation (in words) [2]: extremely effective inhibitor

O=C1CCc2cc(OCCCCc3nnnn3C3CCCCC3)ccc2N1 [cilostazol, 6[4-(1-cyclohexyl-1H-tetrazol-5-yl)-butoxy]-3,4-dihydro-2-(1H)-quinolinone]
release in vitro [4]: ~35%

Nc1nc(Cl)nc2c1ncn2[C@H]1C[C@H](O)[C@@H](CO)O1 [cladribine, 2-chlorodeoxyadenosine]
effect of the added agent on the anti-proliferative activity of rapamycin [2]: potentiate the anti-proliferative activity of rapamycin | inhibition of human coronary artery smooth muscle cell proliferation (in words) [2]: completely inhibits human coronary artery smooth muscle cell proliferation | relative elution from polymeric stent coating in vivo (in words) [5]: elutes more rapidly than rapamycin

COc1cc([C@@H]2c3cc4c(cc3[C@@H](O[C@@H]3O[C@@H]5CO[C@@H](C)O[C@H]5[C@H](O)[C@H]3O)[C@H]3COC(=O)[C@H]23)OCO4)cc(OC)c1O [etoposide]
cytotoxicity in cell viability assay ([6]; concentrations up to ten micromolar): non-cytotoxic | effect of the added agent on the anti-proliferative activity of rapamycin [2]: potentiate the anti-proliferative activity of rapamycin

COc1c(C)c2c(c(O)c1C/C=C(\C)CCC(=O)O)C(=O)OC2 [mycophenolic acid]
effect of the added agent on the anti-proliferative activity of rapamycin [2]: potentiates the anti-proliferative activity of rapamycin | relative elution from polymeric stent coating in vivo (in words) [5]: elutes more completely over a shorter duration than the rapamycin

CC(=O)O[C@H]1C(=O)[C@@]2(C)[C@H]([C@H](OC(=O)c3ccccc3)[C@]3(O)C[C@H](OC(=O)[C@H](O)[C@@H](NC(=O)c4ccccc4)c4ccccc4)C(C)=C1C3(C)C)[C@]1(OC(C)=O)CO[C@@H]1C[C@@H]2O [paclitaxel]
paclitaxel concentration as true liquid formulation [7]: up to 2.5 mg/ml | fold higher than the solubility of paclitaxel in water ([7]; 2.5 mg/ml formulation): about 1000 fold

CO[C@H]1C[C@@H]2CC[C@@H](C)[C@@](O)(O2)C(=O)C(=O)N2CCCC[C@H]2C(=O)O[C@H]([C@H](C)C[C@@H]2CC[C@@H](O)[C@H](OC)C2)CC(=O)[C@H](C)/C=C(\C)[C@@H](O)[C@@H](OC)C(=O)[C@H](C)C[C@H](C)/C=C/C=C/C=C/1C [rapamycin]
sirolimus concentration relative to the solubility of sirolimus in water ([1]; 4 mg/ml PEG 200 formulation): about four hundred to about one thousand times higher | relative elution from polymeric stent coating in vivo (in words) [5]: slower release rate than that of mycophenolic acid

CC[C@@]1(O)C(=O)OCc2c1cc1n(c2=O)Cc2cc3c(CN(C)C)c(O)ccc3nc2-1 [topotecan]
cytotoxicity in cell viability assay ([6]; concentrations up to one micromolar): non-cytotoxic | effect of the added agent on the anti-proliferative activity of rapamycin [2]: potentiate the anti-proliferative activity of rapamycin

CC(/C=C/C(=O)NO)=C\[C@@H](C)C(=O)c1ccc(N(C)C)cc1 [trichostatin A]
anti-proliferative IC50's (tumor cell lines): low nM range | IC50 [8]: ~6 nM
